# According to patent US6068838A, “Purified multimerase” (Baxter Aktiengesellschaft, priority 1996, dated 2000):
# Residues, ends and D or L forms follow the SMILES beside them. *: point of attachment. Cbz = O=C(OCc1ccccc1)*; CHN2 = [N-]=[N+]=C*
# Molecular target: T1, vWF-cleaving protease (Homo sapiens, UniProt Q76LX8)
# T1 construct: Purification of Protease from Plasma; from tissue; host or cells: plasma (fibrinogen removed before chromatography)
# T1 sequence (Q76LX8 75-1427): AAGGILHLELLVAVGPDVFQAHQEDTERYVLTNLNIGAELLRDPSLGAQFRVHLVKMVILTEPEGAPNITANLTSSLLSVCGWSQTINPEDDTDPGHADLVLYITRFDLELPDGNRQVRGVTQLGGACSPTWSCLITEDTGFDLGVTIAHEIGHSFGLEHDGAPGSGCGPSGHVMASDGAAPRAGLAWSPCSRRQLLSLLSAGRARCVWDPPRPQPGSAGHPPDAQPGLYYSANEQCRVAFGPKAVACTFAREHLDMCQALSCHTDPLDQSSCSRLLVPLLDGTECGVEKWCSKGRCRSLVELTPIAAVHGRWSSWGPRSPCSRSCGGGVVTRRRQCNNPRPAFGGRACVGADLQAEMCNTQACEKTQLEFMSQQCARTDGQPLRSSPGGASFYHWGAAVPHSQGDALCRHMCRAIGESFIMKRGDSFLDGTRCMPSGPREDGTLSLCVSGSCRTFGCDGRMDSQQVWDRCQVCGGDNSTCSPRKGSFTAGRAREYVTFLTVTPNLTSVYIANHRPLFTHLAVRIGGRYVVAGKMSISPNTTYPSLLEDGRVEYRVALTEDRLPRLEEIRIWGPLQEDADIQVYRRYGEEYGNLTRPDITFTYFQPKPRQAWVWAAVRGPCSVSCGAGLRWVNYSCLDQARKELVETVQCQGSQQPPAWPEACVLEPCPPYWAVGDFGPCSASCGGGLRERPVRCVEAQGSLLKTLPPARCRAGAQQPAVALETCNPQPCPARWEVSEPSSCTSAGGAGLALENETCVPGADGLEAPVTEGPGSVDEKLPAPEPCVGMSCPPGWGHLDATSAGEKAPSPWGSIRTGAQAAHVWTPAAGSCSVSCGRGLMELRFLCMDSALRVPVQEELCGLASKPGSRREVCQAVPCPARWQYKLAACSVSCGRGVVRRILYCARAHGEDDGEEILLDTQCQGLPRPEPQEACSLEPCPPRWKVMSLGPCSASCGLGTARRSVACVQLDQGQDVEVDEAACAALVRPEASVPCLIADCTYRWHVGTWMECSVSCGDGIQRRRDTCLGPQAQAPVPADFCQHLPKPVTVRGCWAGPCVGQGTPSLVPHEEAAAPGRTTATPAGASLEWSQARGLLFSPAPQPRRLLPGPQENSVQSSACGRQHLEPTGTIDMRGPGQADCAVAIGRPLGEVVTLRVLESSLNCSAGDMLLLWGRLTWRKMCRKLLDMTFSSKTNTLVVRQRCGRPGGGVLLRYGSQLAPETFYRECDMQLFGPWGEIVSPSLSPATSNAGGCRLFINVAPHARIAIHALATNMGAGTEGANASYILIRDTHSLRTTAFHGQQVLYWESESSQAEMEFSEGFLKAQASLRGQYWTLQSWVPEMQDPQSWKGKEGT
# Experiment: Influence of metal ions on the activity of the vWF-cleaving protease
# Type: biochemical
# Conditions: 95 μl protease preincubated 15 minutes at 37° C. with 5 μl of 0.2 M salt solution
row,SMILES,activation of the protease by metal ions
1,"[Ba+2].[Cl-].[Cl-] [Ba^2+, BaCl2]",substantial activation
2,"[Ca+2].[Cl-].[Cl-] [Ca^2+, CaCl2]",substantial activation
3,"CC(=O)[O-].CC(=O)[O-].[Cd+2] [Cd^2+, Cd(CH3 COO)2]",no activation
4,"O=S(=O)([O-])[O-].[Co+2] [Co^2+, CoSO4]",no activation
5,"O=S(=O)([O-])[O-].[Cu+2] [Cu^2+, CuSO4]",no activation
6,"[Cl-].[Cl-].[Mg+2] [Mg^2+, MgCl2]",slight activation
7,"[Cl][Mn][Cl] [Mn^2+, MnCl2]",no activation
8,"[Cl][Ni][Cl] [Ni^2+, NiCl2]",no activation
9,"[Cl-].[Cl-].[Sr+2] [Sr^2+, SrCl2]",substantial activation
10,"[Cl-].[Cl-].[Zn+2] [Zn^2+, ZnCl2]",no activation

# Molecular target: T1, vWF-cleaving protease
# Experiment: Effect of protease inhibitors on vWF degradation
# Type: biochemical
# Conditions: not given
SMILES,inhibition of the barium-preincubated protease (vWF degradation by SDS agarose electrophoresis and immunoblotting),protease inhibition with inhibitor also incorporated into the dialysis solution,inhibition of the barium-preincubated protease (vWF degradation)
O=C(O)CN(CCN(CC(=O)O)CC(=O)O)CC(=O)O [EDTA],inhibit the barium-preincubated protease completely,,
"NC(=O)CI [IAA, iodoncetamide]",did not result in protease inhibition,,
"CCN1C(=O)C=CC1=O [NEM, N-ethylmaleimide]",did not result in protease inhibition,partial protease inhibition,
"O=S(=O)(F)Cc1ccccc1 [PMSF, phenylmethylsulfonyl fluoride]",,,no inhibition
"Cc1ccc(S(=O)(=O)N[C@@H](CCCCN)C(=O)CCl)cc1 [TLCK, N-α-p-tosyl-L-lysine-chloromethylketone]",,,no inhibition
"O=C(O)CC(O)(CC(=O)O)C(=O)O [citrate, Na3 -citrate]",partial inhibition,,
CC(=O)N[C@@H](CC(C)C)C(=O)N[C@@H](CC(C)C)C(=O)N[C@H](C=O)CCCNC(=N)N [leupeptin],,,no inhibition

# Same assay, conditions: final concentration 0.1 mM during preincubation with barium-activated protease
row,SMILES,effect of peptidyl-diazomethylketone inhibitors on proteolytic degradation of vWF
1,CC(C)C[C@H](NC(=O)OCc1ccccc1)C(=O)N[C@@H](CC(C)C)C(=O)N[C@@H](Cc1ccc(O)cc1)C(=O)C=[N+]=[N-] [Z-Leu-Leu-Tyr-CHN2] (Cbz-Leu-Leu-Tyr-CHN2),active in the presence
2,"[N-]=[N+]=CC(=O)[C@H](Cc1ccccc1)NC(=O)[C@H](Cc1ccccc1)NC(=O)OCc1ccccc1 [Z-Phe-Phe-CH2, Z-Phe-Phe-CHN2] (Cbz-Phe-Phe-CHN2)",impaired the proteolytic degradation of vWF
3,CC(C)[C@H](NC(=O)OCc1ccccc1)C(=O)N[C@H](C(=O)N[C@@H](Cc1ccc(O)cc1)C(=O)C=[N+]=[N-])C(C)C [Z-Val-Val-Tyr-CHN2] (Cbz-Val-Val-Tyr-CHN2),impaired the proteolytic degradation of vWF

# Same assay, conditions: inhibitor 1 mM, 15 minutes preincubation at 37° C.
row,SMILES,inhibition of the barium-preincubated protease (vWF degradation)
1,"Cc1ccc(S(=O)(=O)N[C@@H](Cc2ccccc2)C(=O)CCl)cc1 [TPCK, N-α-p-tosyl-L-phenylalanine-chloromethylketone]",no inhibition

# Same assay, conditions: inhibitor final concentration 10 mM, 15 minutes preincubation at 37° C.
row,SMILES,inhibition of the barium-preincubated protease (vWF degradation by SDS agarose electrophoresis and immunoblotting)
1,"O=C(O)CN(CCOCCOCCN(CC(=O)O)CC(=O)O)CC(=O)O [ESTA, EGTA]",inhibit the barium-preincubated protease completely
